Reference: BindingDB's records for doi:10.1021/jm00362a020 (1983)

The compounds below were run against Glycolate oxidase (Sus scrofa) (assay: In vitro inhibition of porcine Glycolate oxidase).

SMILES	IC50 [µM]
O=C(C=Cc1ccccc1)CC(=O)C(=O)O	19
O=C(O)C(=O)CC(=O)c1ccc(C2CCCc3ccccc32)cc1 (centres undefined)	2.1
CCCCCCCCCc1ccc(C(=O)CC(=O)C(=O)O)cc1	0.6
O=C(O)C(=O)CC(=O)c1ccc(-n2c(-c3ccccc3)cc3ccccc32)cc1	0.18
CC1=C(C=CC(=O)CC(=O)C(=O)O)C(C)(C)CCC1	1.4
O=C(O)C(=O)CC(=O)c1ccc(-c2ccc(SCc3ccccc3)cc2)cc1	0.4

Second part, the compound after the results:

IC50 [µM]	SMILES
0.16	CSc1ccc(-c2ccc(C(=O)CC(=O)C(=O)O)cc2)cc1
0.063	O=C(O)C(=O)CC(=O)c1ccc(-c2ccc(Br)cc2)cc1
0.06	O=C(O)C(=O)CC(=O)c1ccc(-c2ccc(SCC3(O)COc4ccccc4OC3)cc2)cc1
